Measured values as given in ChEMBL document CHEMBL2074568, “Characterization of the transport properties of human multidrug resistance protein 7 (MRP7, ABCC10)” (Mol Pharmacol, 2003).
Values belong to the compound of their own block, whether it stands above or below them.

Experiments:
Format in all cases: functional, cell membranes
Set-up in all cases: scale not given: the % may be the effect or the level left
[1] = molecular target: T1, ATP-binding cassette sub-family C member 10 (Homo sapiens) (UniProt Q5T3U5); assay: TP_TRANSPORTER: inhibition of E217betaG uptake (E217betaG: 1 uM, Estradiol-3-glucuronide: 100 uM) in membrane vesicles from MRP7-expressing HEK293 cells; settings: Membrane vesicle
T1 sequence (whole entry): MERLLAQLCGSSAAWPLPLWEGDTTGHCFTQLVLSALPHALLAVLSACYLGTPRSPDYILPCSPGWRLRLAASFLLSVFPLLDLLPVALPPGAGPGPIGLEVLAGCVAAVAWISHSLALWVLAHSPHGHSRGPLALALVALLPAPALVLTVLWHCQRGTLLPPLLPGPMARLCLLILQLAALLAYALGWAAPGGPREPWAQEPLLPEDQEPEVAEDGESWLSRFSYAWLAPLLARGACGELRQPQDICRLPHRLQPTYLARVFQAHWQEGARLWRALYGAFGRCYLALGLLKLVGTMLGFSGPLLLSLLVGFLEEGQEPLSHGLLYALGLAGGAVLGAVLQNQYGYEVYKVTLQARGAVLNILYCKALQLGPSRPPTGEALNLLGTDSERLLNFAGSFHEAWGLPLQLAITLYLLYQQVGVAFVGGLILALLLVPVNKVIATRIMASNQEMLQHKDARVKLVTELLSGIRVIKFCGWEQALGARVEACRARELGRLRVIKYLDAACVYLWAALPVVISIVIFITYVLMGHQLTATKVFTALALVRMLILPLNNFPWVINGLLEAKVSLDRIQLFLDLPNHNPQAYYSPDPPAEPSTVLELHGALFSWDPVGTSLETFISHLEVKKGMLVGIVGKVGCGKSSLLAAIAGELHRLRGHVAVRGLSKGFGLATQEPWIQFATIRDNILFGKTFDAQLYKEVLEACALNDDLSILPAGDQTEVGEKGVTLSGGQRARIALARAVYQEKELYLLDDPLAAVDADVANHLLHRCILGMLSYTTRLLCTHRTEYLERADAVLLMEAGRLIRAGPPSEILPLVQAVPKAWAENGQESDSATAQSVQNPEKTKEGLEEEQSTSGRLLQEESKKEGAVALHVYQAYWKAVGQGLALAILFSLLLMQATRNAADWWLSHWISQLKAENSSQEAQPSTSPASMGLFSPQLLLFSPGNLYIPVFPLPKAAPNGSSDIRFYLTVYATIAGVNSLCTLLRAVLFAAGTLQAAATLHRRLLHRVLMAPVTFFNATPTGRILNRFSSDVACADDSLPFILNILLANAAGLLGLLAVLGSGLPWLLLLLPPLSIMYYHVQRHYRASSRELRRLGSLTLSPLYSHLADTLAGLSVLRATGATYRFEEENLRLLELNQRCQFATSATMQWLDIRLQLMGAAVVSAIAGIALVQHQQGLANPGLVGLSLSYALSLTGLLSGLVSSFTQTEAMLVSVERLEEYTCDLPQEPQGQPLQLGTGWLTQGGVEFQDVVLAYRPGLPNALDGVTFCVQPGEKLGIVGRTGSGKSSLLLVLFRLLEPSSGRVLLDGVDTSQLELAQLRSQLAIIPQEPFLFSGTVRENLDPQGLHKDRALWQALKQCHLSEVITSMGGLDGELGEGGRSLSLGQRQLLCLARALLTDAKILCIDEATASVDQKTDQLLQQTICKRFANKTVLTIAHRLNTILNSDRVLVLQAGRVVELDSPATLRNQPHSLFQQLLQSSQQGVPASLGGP

[2] = molecular target: T1, ATP-binding cassette sub-family C member 10 (Homo sapiens); assay: TP_TRANSPORTER: inhibition of E217betaG uptake (E217betaG: 1 uM, DNP-SG:10uM) in membrane vesicles from MRP7-expressing HEK293 cells; settings: Membrane vesicle
[3] = molecular target: T1, ATP-binding cassette sub-family C member 10 (Homo sapiens); assay: TP_TRANSPORTER: inhibition of E217betaG uptake (E217betaG: 1 uM, Doxorubicin: 30 uM) in membrane vesicles from MRP7-expressing HEK293 cells; settings: Membrane vesicle
[4] = molecular target: T1, ATP-binding cassette sub-family C member 10 (Homo sapiens); assay: TP_TRANSPORTER: inhibition of E217betaG uptake (E217betaG: 1 uM, 16alpha,17beta-Estriol 3-(beta-D-glucuronide): 100 uM) in membrane vesicles from MRP7-expressing HEK293 cells; settings: Membrane vesicle
[5] = molecular target: T1, ATP-binding cassette sub-family C member 10 (Homo sapiens); assay: TP_TRANSPORTER: inhibition of E217betaG uptake (E217betaG: 1 uM, Trequinsin: 100 uM) in membrane vesicles from MRP7-expressing HEK293 cells; settings: Membrane vesicle
[6] = molecular target: T1, ATP-binding cassette sub-family C member 10 (Homo sapiens); assay: TP_TRANSPORTER: inhibition of E217betaG uptake (E217betaG: 1 uM, 16alpha,17beta-Estriol 3-sulfate: 100 uM) in membrane vesicles from MRP7-expressing HEK293 cells; settings: Membrane vesicle
[7] = molecular target: T1, ATP-binding cassette sub-family C member 10 (Homo sapiens); assay: TP_TRANSPORTER: inhibition of E217betaG uptake (E217betaG: 1 uM, Sildefafil:100uM) in membrane vesicle from MRP7-expressing HEK293 cells
[8] = molecular target: T1, ATP-binding cassette sub-family C member 10 (Homo sapiens); assay: TP_TRANSPORTER: inhibition of E217betaG uptake (E217betaG: 1 uM, Zaprinast: 100uM) in membrane vesicles from MRP7-expressing HEK293 cells; settings: Membrane vesicle
[9] = molecular target: T1, ATP-binding cassette sub-family C member 10 (Homo sapiens); assay: TP_TRANSPORTER: inhibition of E217betaG uptake (E217betaG: 1 uM, Verapamil: 100 uM) in membrane vesicles from MRP7-expressing HEK293 cells; settings: Membrane vesicle
[10] = molecular target: T1, ATP-binding cassette sub-family C member 10 (Homo sapiens); assay: TP_TRANSPORTER: inhibition of E217betaG uptake (E217betaG: 1 uM, MTX:100uM) in membrane vesicles from MRP7-expressing HEK293 cells; settings: Membrane vesicle
[11] = molecular target: T1, ATP-binding cassette sub-family C member 10 (Homo sapiens); assay: TP_TRANSPORTER: inhibition of E217betaG uptake (E217betaG: 1 uM, 17alpha-Ethynyl-17beta-Estradiol: 100 uM) in membrane vesicles from MRP7-expressing HEK293 cells; settings: Membrane vesicle
[12] = molecular target: T1, ATP-binding cassette sub-family C member 10 (Homo sapiens); assay: TP_TRANSPORTER: inhibition of E217betaG uptake (E217betaG: 1 uM, 16alpha,17beta-Estriol 16-(beta-D-glucuronide): 100 uM) in membrane vesicles from MRP7-expressing HEK293 cells; settings: Membrane vesicle
[13] = molecular target: T1, ATP-binding cassette sub-family C member 10 (Homo sapiens); assay: TP_TRANSPORTER: inhibition of E217betaG uptake (E217betaG: 1 uM, E2 3SO4 17betaG: 100uM) in membrane vesicles from MRP7-expressing HEK293 cells; settings: Membrane vesicle
[14] = molecular target: T1, ATP-binding cassette sub-family C member 10 (Homo sapiens); assay: TP_TRANSPORTER: inhibition of E217betaG uptake (E217betaG: 1 uM, Taxol: 30 uM) in membrane vesicles from MRP7-expressing HEK293 cells; settings: Membrane vesicle
[15] = molecular target: T1, ATP-binding cassette sub-family C member 10 (Homo sapiens); assay: TP_TRANSPORTER: inhibition of E217betaG uptake (E217betaG: 1 uM, Vincristine: 30 uM) in membrane vesicles from MRP7-expressing HEK293 cells; settings: Membrane vesicle
[16] = molecular target: T1, ATP-binding cassette sub-family C member 10 (Homo sapiens); assay: TP_TRANSPORTER: inhibition of E217betaG uptake (E217betaG: 1 uM, Glycocholate: 100uM) in membrane vesicles from MRP7-expressing HEK293 cells; settings: Membrane vesicle
[17] = molecular target: T1, ATP-binding cassette sub-family C member 10 (Homo sapiens); assay: TP_TRANSPORTER: inhibition of E217betaG uptake (E217betaG: 1 uM, VP-16: 30 uM) in membrane vesicles from MRP7-expressing HEK293 cells; settings: Membrane vesicle
[18] = molecular target: T1, ATP-binding cassette sub-family C member 10 (Homo sapiens); assay: TP_TRANSPORTER: inhibition of E217betaG uptake (E217betaG: 1 uM, Sulfinpyrazone:30uM) in membrane vesicles from MRP7-expressing HEK293 cells; settings: Membrane vesicle
[19] = molecular target: T1, ATP-binding cassette sub-family C member 10 (Homo sapiens); assay: TP_TRANSPORTER: inhibition of E217betaG uptake (E217betaG: 1 uM, Glycholithocholate-3-sulfate: 30 uM) in membrane vesicles from MRP7-expressing HEK293 cells; settings: Membrane vesicle
[20] = molecular target: T1, ATP-binding cassette sub-family C member 10 (Homo sapiens); assay: TP_TRANSPORTER: inhibition of E217betaG uptake (E217betaG: 1 uM, beta-Estradiol: 100 uM) in membrane vesicles from MRP7-expressing HEK293 cells; settings: Membrane vesicle
[21] = molecular target: T1, ATP-binding cassette sub-family C member 10 (Homo sapiens); assay: TP_TRANSPORTER: inhibition of E217betaG uptake (E217betaG: 1 uM, LTC4:1uM) in membrane vesicles from MRP7-expressing HEK293 cells; settings: Membrane vesicle

Structure (SMILES): C[C@]12CC[C@@H]3c4ccc(O[C@@H]5O[C@H](C(=O)O)[C@@H](O)[C@H](O)[C@H]5O)cc4CC[C@H]3[C@@H]1CC[C@@H]2O
- Activity [1]: 60.1%

Structure (SMILES): N[C@@H](CCC(=O)N[C@H](CSc1ccc([N+](=O)[O-])cc1[N+](=O)[O-])C(=O)NCC(=O)O)C(=O)O
- Activity [2]: 46.4%

Structure (SMILES): C[C@]12CC[C@@H]3c4ccc(O[C@@H]5O[C@H](C(=O)O)[C@@H](O)[C@H](O)[C@H]5O)cc4CC[C@H]3[C@@H]1C[C@@H](O)[C@@H]2O
- Activity [4]: 58.5%

Structure (SMILES): C#C[C@]1(O)CC[C@H]2[C@@H]3CCc4cc(O)ccc4[C@H]3CC[C@@]21C
- Activity [11]: 51.4%

Structure (SMILES): C[C@]12CC[C@@H]3c4ccc(O)cc4CC[C@H]3[C@@H]1C[C@@H](O[C@@H]1O[C@H](C(=O)O)[C@@H](O)[C@H](O)[C@H]1O)[C@@H]2O
- Activity [12]: 53%

Structure (SMILES): C[C@]12CC[C@@H]3c4ccc(OS(=O)(=O)O)cc4CC[C@H]3[C@@H]1CC[C@@H]2O[C@@H]1O[C@H](C(=O)O)[C@@H](O)[C@H](O)[C@H]1O
- Activity [13]: 45.1%

Structure (SMILES): CC(=O)O[C@H]1C(=O)[C@@]2(C)[C@H]([C@H](OC(=O)c3ccccc3)[C@]3(O)C[C@H](OC(=O)[C@H](O)[C@@H](NC(=O)c4ccccc4)c4ccccc4)C(C)=C1C3(C)C)[C@]1(OC(C)=O)CO[C@@H]1C[C@@H]2O
- Activity [14]: 22.1%

Structure (SMILES): C[C@H](CCC(=O)NCC(=O)O)[C@H]1CC[C@H]2[C@@H]3[C@H](O)C[C@@H]4C[C@H](O)CC[C@]4(C)[C@H]3C[C@H](O)[C@]12C
- Activity [16]: 58.4%

Structure (SMILES): COc1cc([C@@H]2c3cc4c(cc3[C@@H](O[C@@H]3O[C@@H]5CO[C@@H](C)O[C@H]5[C@H](O)[C@H]3O)[C@H]3COC(=O)[C@H]23)OCO4)cc(OC)c1O
- Activity [17]: 49.5%

Structure (SMILES): O=C1C(CC[S+]([O-])c2ccccc2)C(=O)N(c2ccccc2)N1c1ccccc1 (stereo unspecified)
- Activity [18]: 39.5%

Structure (SMILES): C[C@H](CCC(=O)NCC(=O)O)[C@H]1CC[C@H]2[C@@H]3CC[C@@H]4C[C@H](OS(=O)(=O)O)CC[C@]4(C)[C@H]3CC[C@]12C
- Activity [19]: 41.8%

Structure (SMILES): C[C@]12CC[C@@H]3c4ccc(O)cc4CC[C@H]3[C@@H]1CC[C@@H]2O
- Activity [20]: 60.7%

Structure (SMILES): CCCCC/C=C\C\C=C/C=C/C=C/[C@@H](SC[C@@H](NC(=O)CC[C@H](N)C(=O)O)C(=O)NCC(=O)O)[C@@H](O)CCCC(=O)O
- Activity [21]: 40.4%

Next, values leading:

- Activity [3]: 18.2%
Structure (SMILES): COc1cccc2c1C(=O)c1c(O)c3c(c(O)c1C2=O)C[C@@](O)(C(=O)CO)C[C@@H]3O[C@H]1C[C@H](N)[C@H](O)[C@H](C)O1

- Activity [5]: 44.3%
Structure (SMILES): COc1cc2c(cc1OC)-c1c/c(=N\c3c(C)cc(C)cc3C)n(C)c(=O)n1CC2

- Activity [6]: 49.4%
Structure (SMILES): C[C@]12CC[C@@H]3c4ccc(OS(=O)(=O)O)cc4CC[C@H]3[C@@H]1C[C@@H](O)[C@@H]2O

- Activity [7]: 41%
Structure (SMILES): CCCc1nn(C)c2c(=O)[nH]c(-c3cc(S(=O)(=O)N4CCN(C)CC4)ccc3OCC)nc12

- Activity [8]: 48.3%
Structure (SMILES): CCCOc1ccccc1-c1nc2[nH]nnc2c(=O)[nH]1

- Activity [9]: 62.3%
Structure (SMILES): COc1ccc(CCN(C)CCCC(C#N)(c2ccc(OC)c(OC)c2)C(C)C)cc1OC (stereo unspecified)

- Activity [10]: 74%
Structure (SMILES): CN(Cc1cnc2nc(N)nc(N)c2n1)c1ccc(C(=O)N[C@@H](CCC(=O)O)C(=O)O)cc1

- Activity [15]: 18.4%
Structure (SMILES): CC[C@]1(O)C[C@H]2CN(CCc3c([nH]c4ccccc34)[C@@](C(=O)OC)(c3cc4c(cc3OC)N(C=O)[C@H]3[C@@](O)(C(=O)OC)[C@H](OC(C)=O)[C@]5(CC)C=CCN6CC[C@]43[C@@H]65)C2)C1
